Reference: publication PMC8691714 (Cancer Research Communications, 2021)

What was measured:
TMD8 cells = experiment: MTT viability assay, TMD8 cells, 72 hours; assay type: cell-based, human
Description: Cell viability was assessed after 72 hours of incubation.

[1] = set-up: method as in earlier work; conditions: PBPK model parameter, ref [17, 18] and Drugbank, cited from earlier work
[2] = set-up: method as in earlier work; conditions: PBPK model parameter, ref [17, 18] and Drugbank, cited from earlier work; remark: listed apart in the source
[3] = set-up: method as in earlier work; conditions: PBPK model parameter, ref [17, 18] and Drugbank, cited from earlier work; remark: listed apart in the source
BTK = experiment: Immunoblotting of BTK signaling in primary CLL cells; assay type: cell-based, human; conditions: ibrutinib 1 μmol/L with cobicistat 1, 10 μmol/L
Description: Blood was drawn from patients with newly diagnosed, untreated CLL after receipt of written informed consent under a protocol approved by the Institutional Review Board of The Ohio State University (Columbus, OH) in accordance with the Declaration of Helsinki. B cells were isolated from whole blood using Rosette-Sep B (StemCell Technologies). Primary CLL cells were cultured in RPMI1640 medium supplemented with 10% FBS, 100 U/mL penicillin, 100 μg/mL streptomycin, and 2 mmol/L […]. […] After 1 hour, the cells were pelleted and resuspended in fresh media. For experiments with extended drug exposure, DMSO and cobicistat were added again after washout.
After 15 minutes of stimulation, cell lysates were collected and analyzed by SDS-PAGE. Protein was transferred to nitrocellulose and blots were probed with primary antibodies and horseradish peroxidase (HRP)-conjugated secondary antibodies. Blots were imaged using WesternBright chemiluminescent substrate (Advansta) on an X-ray film. Phosphorylated proteins were analyzed first, then antibodies were removed using Western Blot Stripping Buffer (Thermo Fisher Scientific) before analyzing total protein. Membranes were stripped after imaging total proteins before analyzing loading control. […] Loading controls were assessed for each membrane and are presented with corresponding proteins analyzed on the same membrane.

| Compound | influence on the antileukemic activity of ibrutinib (TMD8 cells; cobicistat 0.1, 1 or 10 μmol/L) | pKa ([1]; acid dissociation constant) | Log Po:w ([1]; octanol/water partition coefficient) | B/P ratio ([2]; blood to plasma ratio) | fu, plasma ([2]; unbound drug in the plasma) | Ka [3] | Clpo ([3]; oral clearance) | Vss ([3]; steady-state volume of distribution) | impact on ibrutinib's ability to suppress BTK signaling (BTK) | influence on the antileukemic activity of ibrutinib (TMD8 cells; ketoconazole 0.1, 1 or 10 μmol/L) |
| --- | --- | --- | --- | --- | --- | --- | --- | --- | --- | --- |
| CC(C)c1nc(CN(C)C(=O)N[C@@H](CCN2CCOCC2)C(=O)N[C@H](CC[C@H](Cc2ccccc2)NC(=O)OCc2cncs2)Cc2ccccc2)cs1 [Cobicistat] | neither ketoconazole nor cobicistat negatively influenced | 6.69 | 4.36 | 0.55 | 0.020 | Ka (1/h)= 0.29 | Clpo (L/h) : 14 | 0.46 L/kg | did not impact | – |
| CC(=O)N1CCN(c2ccc(OCC3COC(Cn4ccnc4)(c4ccc(Cl)cc4Cl)O3)cc2)CC1 (stereo not shown) [Ketoconazole] | – | – | – | – | – | – | – | – | – | neither ketoconazole nor cobicistat negatively influenced |
